From patent publication US10450314B2, “Pteridine derivatives as modulators of ROR gamma” (Boehringer Ingelheim International GmbH, priority 2015, dated 2019)

How the values were obtained:
[1] = molecular target: T1, RORγ (Homo sapiens, UniProt P51449); assay: RORγ Reporter Gene Assay (RGA), luciferase transactivation in transiently transfected HEK 293 cells; type: cell-based; conditions: HEK 293 cells cotransfected with pGL4.3 luc2P/GAL4UAS and pBIND Gal4DBD hRORC LBD; 20-24 h incubation
T1 construct: expressed in transfected cells; host or cells: HEK 293 cells, transiently cotransfected with pGL4.3 luc2P/GAL4UAS/Hygro reporter
T1 sequence (P51449 269-508 limits assumed): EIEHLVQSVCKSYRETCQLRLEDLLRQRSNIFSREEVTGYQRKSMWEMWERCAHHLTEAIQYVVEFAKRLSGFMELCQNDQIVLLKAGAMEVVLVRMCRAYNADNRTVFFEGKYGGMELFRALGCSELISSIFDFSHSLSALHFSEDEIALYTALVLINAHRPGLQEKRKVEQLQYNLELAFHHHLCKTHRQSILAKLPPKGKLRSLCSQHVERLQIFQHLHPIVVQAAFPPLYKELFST
Method: Reporter Gene Assay (RGA)
A nuclear receptor transactivation assay is performed to quantitate the ability of test compounds to inhibit RORγ transactivation of a luciferase reporter. A similar assay is described in: Khan et al., Bioorganic & Medicinal Chemistry Letters 23 (2013), 532-536. The system uses transiently transfected HEK 293 cells cotransfected with two plasmids (pGL4.3, luc2P/GAL4UAS/Hygro, and pBIND, Gal4DBD hRORC LBD1-3). The positive control is co-transiently transfected with both plasmids, and the negative control contains the pGL4.3 promoter sequence. Assays are assembled in 384 well plates where transiently transfected cells and test compound at varying concentrations are incubated for 20-24 h. The next day, assays plates are taken out and equilibrated at RT for 20-30 minutes. Bright-Glo™ Luciferase Assay System is used to detect Luciferase production. After addition of Bright GLO detection reagent, the plates are incubated at RT for 20 minutes. The plates are read on an Envision plate reader to measure luminescence signal. The RLU signal is converted to POC relative to control and blank wells.
Compound Dilution Buffer:
Bright Glo Luciferase Assay System: Promega #E2620
Thaw lysis buffer provided in kit, add 100 mL lysis buffer to substrate powder.

[2] = Human liver microsome (HLM) metabolic stability assay; type: in vitro ADME; conditions: human liver microsomes, 1 uM compound, 37° C., 60 min; % hepatic blood flow
Method: Assessment of Metabolic Stability
The 5 time point, high-throughput human liver microsome (HLM) metabolic stability assay is designed to determine in vitro compound metabolism. Compounds are incubated with HLMs at a concentration of 1 uM, at 37° C., for a total of 60 min. The percent of compound remaining at 5, 15, 30, and 60 min is used to calculate the t1/2 (min), CLint (mL/min/kg), CLh (mL/min/kg), and % Qh. The assay is based on a 96-well format and can accommodate up to 92 compounds per plate (n=1).
Using the 96-well multi-channel head, the Biomek FX, equipped with a Peltier heating block/shaker, is programmed to accomplish the following steps: • 1. Pipette 175 uL of 1.15 mg/mL microsomes into each of the 96 conical inserts (Analytical Sales and Products, catalog number 96PL05) that fit into the plate of the Peltier heating block/shaker (the incubation plate) • 2. Add 5 uL of compounds from the assay plate to the microsomes and shake the mixture at 600 rpm at 42.1° C. for 10 min (a setting of 42.1° C. on the Peltier is required for the samples to incubate at 37° C.) • 3. After 10 min, prompt the user to add the NADPH plate to the deck and add 20 uL from the NADPH plate to the incubation plate to start the reaction • 4. Add 215 uL of 100%, cold acetonitrile containing an internal standard(s) to a 0 minute, 5 minute, 15 minute, 30 minute, and 60 minute “quench” plate • 5. At 0 min, 5 min, 15 min, 30 min, and 60 min into the incubation, aspirate 12 uL from the incubation mixture and add it to the quench solution to stop the reaction • 6. Add 185 uL HPLC grade water to each well of the 0, 5, 15, 30 and 60 minute quench plates to dilute compounds to the appropriate concentration for the mass spectrometer
After all time points are collected, the quench plates are sealed with 96-well pierceable plate mats or heat sealing foil and centrifuged at 3000 rpm for 15 min to pellet the microsomes.
The plates are analyzed using LC/MS/MS with electron spray ionization (ESI) and the previously determined MRM transitions. The LC method includes the following parameters:
Using an Excel template in Activitybase, the peak areas corresponding to 5, 15, 30 and 60 min are compared to the peak area at 0 min to calculate the percent of remaining compound using the following equation:
Percent compound remaining=(AUC at Time t min/AUC at Time 0 min)×100 where t=0, 5, 15, 30 or 60 min.
Time (min) is plotted against the natural logarithm (Ln) of the percent compound remaining to determine the slope. The slope is used to calculate t1/2 (min) using the equation, t1/2=0.693/slope.
Clint, Intrinsic Clearance

IC50 [1] [nM]	HLM (% Qh) [2] [% Qh]	Structure (SMILES)
230	41	COc1ncnc(C2CC2)c1-c1nc(C)c2nc(NCc3ccc(S(C)(=N)=O)cc3)c(=O)n([C@@H](C)C(F)(F)F)c2n1 (single isomer, unassigned) [Example 99a]
640	<24	CCS(=N)(=O)c1ccc(CNc2nc3c(C)nc(-c4c(C)ncnc4C4CC4)nc3n([C@@H](C)C(F)(F)F)c2=O)nc1 (single isomer, unassigned) [Example 102b]
500	<24	CC[C@@H](C)n1c(=O)c(NCc2ncc(S(C)(=O)=O)cn2)nc2c(C)nc(-c3c(C)ncnc3C3CC3)nc21 [Example 57]
130	<24	CCS(=O)(=O)c1ccc(CNc2nc3c(C)nc(-c4c(C)ncnc4C4CC4)nc3n([C@@H](C)C(F)(F)F)c2=O)nc1 [Example 79]
1050	56	CC[C@@H](C)n1c(=O)c(NCc2ccc(S(C)(=O)=O)cn2)nc2c(COC(C)=O)nc(-c3c(C)ncnc3C3CC3)nc21 [Example 47]
270	<24	CCS(=N)(=O)c1ccc(CNc2nc3c(C)nc(-c4c(C)ncnc4C4CC4)nc3n([C@@H](C)C3CC3)c2=O)nc1 (single isomer, unassigned) [Example 42a]
245	<24	CCS(=N)(=O)c1ccc(CNc2nc3c(C)nc(-c4c(C)ncnc4C4CC4)nc3n([C@@H](C)C3CC3)c2=O)cc1 (single isomer, unassigned) [Example 36b]
4200	<24	Cc1ncnc(C2CC2)c1-c1nc(C)c2nc(NCc3ccc(S(C)(=O)=O)cn3)c(=O)n([C@@H](C)CF)c2n1 [Example 49]
165	62	COc1ncnc(C2CC2)c1-c1nc(C)c2nc(NCc3ccc(S(C)(=O)=O)nc3)c(=O)n([C@@H](C)C(F)(F)F)c2n1 [Example 19]
175	55	Cc1ncnc(C2CC2)c1-c1nc(C)c2nc(NCc3ccc(S(C)(=O)=O)cn3)c(=O)n([C@@H](C)C(F)(F)F)c2n1 [Example 18]
102	38	CCS(=O)(=O)c1ccc(CNc2nc3c(C)nc(-c4c(OC)ncnc4C4CC4)nc3n([C@@H](C)C(F)(F)F)c2=O)nc1 [Example 88]
850	55	Cc1ncnc(C2CC2)c1-c1nc(C)c2nc(NCc3ccc(S(C)(=O)=O)cn3)c(=O)n([C@@H](C#N)C(C)C)c2n1 [Example 31]
70	<24	Cc1ncnc(C2CC2)c1-c1nc(C)c2nc(NCc3ccc(S(C)(=O)=O)cn3)c(=O)n([C@@H](C)C3CC3)c2n1 [Example 9]
130	39	COc1ncnc(C2CC2)c1-c1nc(C)c2nc(NCc3ccc(S(C)(=O)=O)cn3)c(=O)n([C@@H](C)C(F)(F)F)c2n1 [Example 17]
275	34	CC[C@@H](C)n1c(=O)c(NCc2ccc(S(N)(=O)=O)cn2)nc2c(C)nc(-c3c(C)ncnc3C3CC3)nc21 [Example 76]
265	<24	Cc1ncnc(C2CC2)c1-c1nc(C)c2nc(NCc3ccc(S(C)(=N)=O)cc3)c(=O)n([C@@H](C)C3CC3)c2n1 (single isomer, unassigned) [Example 27b]
150	40	COc1ncnc(C2CC2)c1-c1nc(C)c2nc(NCc3ccc(S(N)(=O)=O)cn3)c(=O)n([C@@H](C)C(F)(F)F)c2n1 [Example 95]

IC50 [1] [nM]	HLM (% Qh) [2] [% Qh]	Structure (SMILES)
730	<24	Cc1ncnc(C2CC2)c1-c1nc(C)c2nc(NCc3ccc(S(C)(=N)=O)cn3)c(=O)n([C@@H](C)C3CC3)c2n1 (single isomer, unassigned) [Example 43a]
225	<24	CCS(=O)(=O)c1cnc(CNc2nc3c(C)nc(-c4c(C)ncnc4C4CC4)nc3n(C(C)C(F)F)c2=O)nc1 (centres unmarked) [Example 89]
510	27	COc1ncnc(C2CC2)c1-c1nc(C)c2nc(NCc3ccc(S(C)(=N)=O)cn3)c(=O)n([C@@H](C)C(F)(F)F)c2n1 (single isomer, unassigned) [Example 105b]
390	<24	CCS(=N)(=O)c1ccc(CNc2nc3c(C)nc(-c4c(C)ncnc4C4CC4)nc3n([C@@H](C)C3CC3)c2=O)nc1 (single isomer, unassigned) [Example 42b]
320	46	COc1ncnc(C2CC2)c1-c1nc(C)c2nc(NCc3ccc(S(N)(=O)=O)nc3)c(=O)n([C@@H](C)C(F)(F)F)c2n1 [Example 97]
225	<24	CCS(=O)(=O)c1ccc(CNc2nc3c(C)nc(-c4c(C)ncnc4C4CC4)nc3n([C@@H](C)C(F)(F)F)c2=O)cn1 [Example 82]
150	<24	CC[C@H](C)n1c(=O)c(NCc2ncc(S(=O)(=O)CC)cn2)nc2c(C)nc(-c3c(OC)ncnc3C3CC3)nc21 [Example 15]
270	<24	CC[C@H](C)n1c(=O)c(NCc2ccc(S(N)(=O)=O)cn2)nc2c(C)nc(-c3c(C)ncnc3C3CC3)nc21 [Example 85]
175	29	Cc1ncnc(C2CC2)c1-c1nc(C)c2nc(NCc3ccc(S(C)(=O)=O)nc3)c(=O)n([C@@H](C)C(F)(F)F)c2n1 [Example 20]
680	<24	CCS(=O)(=O)c1ccc(CNc2nc3c(C)nc(-c4c(OC)ncnc4C4CC4)nc3n(C(C)C)c2=O)nc1 [Example 77]
140	<24	CCS(=O)(=O)c1cnc(CNc2nc3c(C)nc(-c4c(OC)ncnc4C4CC4)nc3n([C@@H](C)C(F)(F)F)c2=O)nc1 [Example 22]
73	<24	CC[C@@H](C)n1c(=O)c(NCc2ccc(S(=O)(=O)CC)cn2)nc2c(C)nc(-c3c(OC)ncnc3C3CC3)nc21 [Example 86]
113	<24	CC[C@H](C)n1c(=O)c(NCc2ncc(S(=O)(=O)CC)cn2)nc2c(C)nc(-c3c(C)ncnc3C3CC3)nc21 [Example 16]
335	<24	CC[C@@H](C)n1c(=O)c(NCc2ccc(S(C)(=O)=O)cn2)nc2c(CO)nc(-c3c(C)ncnc3C3CC3)nc21 [Example 52]
1100	<24	Cc1ncnc(C2CC2)c1-c1nc(C)c2nc(NCc3ccc(S(N)(=O)=O)nc3)c(=O)n([C@@H](C)C(F)(F)F)c2n1 [Example 98]
265	<24	CC[C@@H](C)n1c(=O)c(NCc2cnc(S(C)(=O)=O)cn2)nc2c(C)nc(-c3c(C)ncnc3C3CC3)nc21 [Example 55]
155	<24	CC[C@@H](C)n1c(=O)c(NCc2ccc(S(C)(=O)=O)cn2)nc2c(C)nc(-c3c(C)ncnc3C3CC3)nc21 [Example 73]
